Patent publication US20250387417A1, “CANNABINOID DERIVATIVES AND COMPOSITIONS COMPRISING SAME” (CANNASOUL ANALYTICS LTD., priority 2022, published 2025)

Test system: MCP-1 secretion
Assay: Acute inflammation: LPS-induced MCP-1 secretion in human colon epithelial cells (ELISA)
Format: cell-based
Conditions: 10 ng/ml LPS, 24 hours, ELISA of supernatants, FIG. 1
Procedure: The efficacy of the compounds according to certain embodiments of the present invention in the treatment of IBD was assessed. Human colon epithelial cells were thawed and cultured in suitable media at a final concentration of 4×10^5 cells per mL. The cells were then cultured and tested in triplicates for 48 hours. Following incubation, controls and test compounds were diluted in culture media to achieve the final assay concentration. Cells were treated with 10 ng/ml LPS with or without positive control/test compounds and incubated for 24 hours. Rosiglitazone at 7.2 μg/ml served as a positive control. Following incubation, the supernatants were collected, and the secretion levels of MCP-1 were measured by ELISA (R&D systems). Optical density was determined by ‘CLARIOStar-plus’® plate-reader. The chemokine concentration (pg/ml) was calculated using a standard curve.

SMILES	inhibition of MCP-1 secretion	inhibitory effect on MCP-1 secretion compared among the test compounds
CCCCCCc1cc(O)c(C/C=C(\C)CCC=C(C)C)c(O)c1OC(C)=O [(E)-3-(3,7-dimethylocta-2,6-dien-1-yl)-6-hexyl-2,4-dihydroxyphenyl acetate]	effectively inhibited MCP-1 secretion in a statistically significant manner	–
CCCCCc1cc(O)c(CC=C(C)C)c(O)c1OC(C)=O [Compound 15]	effectively inhibited MCP-1 secretion in a statistically significant manner	most pronounced inhibitory effect on MCP-1 secretion
CCCCCc1cc(O)c(C2C=C(C)CCC2C(C)(C)O)c(O)c1OC(C)=O (stereo not shown) [Compound 17]	effectively inhibited MCP-1 secretion in a statistically significant manner	–
